Measurements reported in patent publication US20170114021A1, “HALOGEN-SUBSTITUTED COMPOUNDS” (priority 2014, published 2017).

Columns and labels:
Ctenocephalides felis [1] = test: Ctenocephalides felis oral test (CTECFE); type: in vivo; details: application rate 100 ppm in citrated cattle blood; after 2 days
Experimental: Ctenocephalides felis—Oral Test (CTECFE) Solvent: dimethyl sulphoxide
To produce a suitable preparation of active compound, 10 mg of active compound are mixed with 0.5 ml of dimethyl sulphoxide. Dilution with citrated cattle blood gives the desired concentration.
About 20 unfed adult cat fleas (Ctenocephalides felis) are placed into a chamber which is closed at the top and bottom with gauze. A metal cylinder whose bottom end is closed with parafilm is placed onto the chamber. The cylinder contains the blood/active compound preparation, which can be imbibed by the fleas through the parafilm membrane.
After 2 days, the kill in % is determined. 100% means that all of the fleas have been killed; 0% means that none of the fleas have been killed.

Phaedon cochleariae = Phaedon cochleariae spray test (PHAECO); type: in vivo; details: application rate 100 g/ha; Chinese cabbage leaf discs; after 7 days
Experimental: Phaedon cochleariae—Spray Test (PHAECO) Solvent: 78.0 parts by weight of acetone • • 1.5 parts by weight of dimethylformamide Emulsifier: alkylaryl polyglycol ether
(§1) To produce a suitable preparation of active compound, 1 part by weight of active compound is dissolved using the specified parts by weight of solvent and made up with water containing an emulsifier concentration of 1000 ppm until the desired concentration is attained. To produce further test concentrations, the preparation is diluted with emulsifier-containing water.
After 7 days, efficacy in % is determined. 100% means that all the beetle larvae have been killed; 0% means that no beetle larvae have been killed.

Spodoptera frugiperda = Spodoptera frugiperda spray test (SPODFR); type: in vivo; details: application rate 100 g/ha; maize leaf discs; after 7 days
Experimental: Spodoptera frugiperda—Spray Test (SPODFR)
Solvent: 78.0 parts by weight of acetone • • 1.5 parts by weight of dimethylformamide Emulsifier: alkylaryl polyglycol ether
as §1
Leaf discs of maize (Zea mays) are sprayed with an active compound preparation of the desired concentration and, after drying, populated with caterpillars of the armyworm (Spodoptera frugiperda).
After 7 days, efficacy in % is determined. 100% means that all the caterpillars have been killed; 0% means that no caterpillars have been killed.

Musca domestica = Musca domestica test (MUSCDO); type: in vivo; details: application rate 100 ppm; adult houseflies; after 2 days
Experimental: Musca domestica-Test (MUSCDO) Solvent: dimethyl sulphoxide
(§2) To produce a suitable preparation of active compound, 10 mg of active compound are mixed with 0.5 ml of dimethyl sulphoxide, and the concentrate is diluted with water to the desired concentration.
Vessels containing a sponge treated with sugar solution and the active compound preparation of the desired concentration are populated with 10 adult houseflies (Musca domestica).
After 2 days, the kill in % is determined. 100% means that all of the flies have been killed; 0% means that none of the flies have been killed.

[2] = log P by HPLC on reversed-phase column (C18), EEC Directive 79/831 Annex V.A8; type: physicochemical; details: reversed-phase C18 HPLC column; HPLC, C18, acetonitrile/water with formic acid gradient; read-out: log P
Experimental: ^a) Unless indicated otherwise, the following method was used to determine the log P values and masses: The determination of the given log P values was carried out in accordance with EEC Directive 79/831 Annex V.A8 by HPLC (High Performance Liquid Chromatography) on a reversed-phase column (C18). Agilent 1100 LC system; 50*4.6 Zorbax Eclipse Plus C18 1.8 micron; mobile phase A: acetonitrile (0.1% formic acid); mobile phase B: water (0.09% formic acid); linear gradient from 10% acetonitrile to 95% acetonitrile in 4.25 min, then 95% acetonitrile for a further 1.25 min; oven temperature 55° C.; flow rate: 2.0 ml/min. Mass detection is effected by means of an Agilend MSD system.

Lucilia cuprina = Lucilia cuprina test (LUCICU); type: in vivo; details: application rate 100 ppm; L1 larvae; after 2 days
Experimental: Lucilia cuprina-Test (LUCICU) Solvent: dimethyl sulphoxide
as §2
About 20 L1 larvae of the Australian sheep blowfly (Lucilia cuprina) are transferred into a test vessel containing minced horsemeat and the active compound preparation of the desired concentration.
After 2 days, the kill in % is determined. 100% means that all the larvae have been killed; 0% means that no larvae have been killed.

Boophilus microplus = Boophilus microplus injection test (BOOPMI Inj); type: in vivo; details: application rate 20 μg/animal; injection into abdomen
Experimental: Boophilus microplus—Injection Test (BOOPMI Inj) Solvent: dimethyl sulphoxide
To produce a suitable preparation of active compound, 10 mg of active compound are mixed with 0.5 ml of solvent and the concentrate is diluted with solvent to the desired concentration.
1 μl of the active compound solution is injected into the abdomen of 5 engorged adult female cattle ticks (Boophilus microplus). The animals are transferred into dishes and kept in a climate-controlled room.
The activity is assessed after the desired time by laying of fertile eggs. Eggs which are not visibly fertile are stored in a climate-controlled cabinet until the larvae hatch after about 42 days. An efficacy of 100% means that none of the ticks has laid any fertile eggs; 0% means that all the eggs are fertile.

Tetranychus urticae = Tetranychus urticae spray test, OP-resistant (TETRUR); type: in vivo; details: application rate 100 g/ha; bean leaf discs; after 6 days
Experimental: Tetranychus urticae—Spray Test, OP-Resistant (TETRUR) Solvent: 78.0 parts by weight of acetone • • 1.5 parts by weight of dimethylformamide Emulsifier: alkylaryl polyglycol ether
as §1
Discs of bean leaves (Phaseolus vulgaris) infested by all stages of the greenhouse red spider mite (Tetranychus urticae) are sprayed with an active ingredient formulation of the desired concentration.
After 6 days, efficacy in % is determined. 100% means that all the spider mites have been killed; 0% means that no spider mites have been killed.

Amblyomma hebraeum = test: Amblyomma hebaraeum test (AMBYHE), tick nymph immersion; type: in vivo; details: application rate 20 ppm; tick nymphs; after 42 days
Experimental: Amblyomma hebaraeum Test (AMBYHE) Solvent: dimethyl sulphoxide
as §2
Tick nymphs (Amblyomma hebraeum) are placed into perforated plastic beakers and immersed in the desired concentration for one minute. The ticks are transferred on filter paper into a Petri dish and stored in a climate-controlled cabinet.
After 42 days, the kill in % is determined. 100% means that all of the ticks have been killed; 0% means that none of the ticks have been killed.

[3] = system: Boophilus microplus Parkhurst strain, SP-resistant; test: Boophilus microplus dip test (BOOPMI Dip); type: in vivo; details: application rate 20 ppm; engorged adult female cattle ticks; after 7 days
Experimental: Boophilus microplus—Dip Test (BOOPMI Dip) Test animals: cattle ticks (Boophilus microplus) Parkhurst strain, SP-resistant Solvent: dimethyl sulphoxide
10 mg of active compound are dissolved in 0.5 ml of dimethyl sulphoxide. To produce a suitable formulation, the active compound solution is diluted with water to the concentration desired in each case.
This active compound preparation is pipetted into tubes. 8-10 engorged adult female cattle ticks (Boophilus microplus) are transferred into a further tube with holes. The tube is immersed into the active compound preparation, and all the ticks are completely wetted. After the liquid has run out, the ticks are transferred on filter discs into plastic dishes and stored in a climate-controlled room.
Efficacy is assessed after 7 days by laying of fertile eggs. Eggs which are not visibly fertile are stored in a climate-controlled cabinet until the larvae hatch after about 42 days. An efficacy of 100% means that none of the ticks has laid any fertile eggs; 0% means that all the eggs are fertile.

Rhipicephalus sanguineus = Rhipicephalus sanguineus in vitro contact test; type: in vivo; details: application rate 5 μg/cm^2; adult dog ticks; after 48 h
Experimental: Rhipicephalus sanguineus—In Vitro Contact Tests
(§3) For the coating of the test tubes, 9 mg of active compound are first dissolved in 1 ml of acetone p.a. and then diluted to the desired concentration with acetone p.a. 250 μl of the solution are distributed homogeneously on the inner walls and the base of a 25 ml test tube by turning and rocking on an orbital shaker (rocking rotation at 30 rpm for 2 h). With 900 ppm active compound solution and internal surface 44.7 cm^2, given homogeneous distribution, an area-based dose of 5 μg/cm^2 is achieved.
After the solvent has evaporated off, the tubes are populated with 5-10 adult dog ticks (Rhipicephalus sanguineus), sealed with a perforated plastic lid and incubated in a horizontal position in the dark at room temperature and ambient humidity. After 48 h, efficacy is determined. To this end, the ticks are knocked to the floor of the tube and incubated on a hotplate at 45-50° C. for not more than 5 min. Ticks which remain motionless on the floor or move in such an uncoordinated manner that they are unable to deliberately avoid the heat by climbing upwards are considered to be dead or moribund.
An efficacy of 100% means that all the ticks were dead or moribund. 0% efficacy means that none of the ticks had been harmed.

Ctenocephalides felis [4] = test: Ctenocephalides felis in vitro contact test; type: in vivo; details: application rate 5 μg/cm^2; adult cat fleas; after 48 h
Experimental: Ctenocephalides felis—In Vitro Contact Test
as §3
After the solvent has evaporated off, the tubes are populated with 5-10 adult cat fleas (Ctenocephalides felis), sealed with a perforated plastic lid and incubated in a horizontal position at room temperature and ambient humidity. After 48 h, efficacy is determined. To this end, the test tubes are stood upright and the fleas are knocked to the base of the tube. Fleas which remain motionless at the base or move in an uncoordinated manner are considered to be dead or moribund.
100% efficacy means that all the fleas were dead or moribund. 0% efficacy means that no fleas were harmed.

chromatographic logP [2] | SMILES | efficacy (kill) (Ctenocephalides felis [1]) | efficacy (Phaedon cochleariae) | efficacy (Spodoptera frugiperda) | efficacy (kill) (Musca domestica) | efficacy (kill) (Lucilia cuprina) | efficacy (laying of fertile eggs) (Boophilus microplus) | efficacy (Tetranychus urticae) | efficacy (kill) (Amblyomma hebraeum) | efficacy (laying of fertile eggs) [3] | efficacy (Rhipicephalus sanguineus) | efficacy (Ctenocephalides felis [4])
4.17 | Cn1nc(C(F)(F)C(F)(F)F)c(C(F)(F)F)c1-c1cnn(-c2ccc(Cl)c(C(=O)NC3CC3)c2)n1 [If-1, 2-chloro-N-cyclopropyl-5-{4-[1-methyl-3-(pentafluoroethyl)-4-(trifluoromethyl)-1H-pyrazol-5-yl]-2H-1,2,3-triazol-2-yl}benzamide] | 100% | 100% | 100% | 100% | 100% | 100% | 100% |  |  |  | 
3.67 | Cn1nc(C(F)(F)C(F)(F)F)c(C(F)(F)F)c1-c1cn(-c2ccc(Cl)c(C(=O)NC3CC3)c2)nn1 [Ig-1, 2-chloro-N-cyclopropyl-5-{4-[1-methyl-3-(pentafluoroethyl)-4-(trifluoromethyl)-1H-pyrazol-5-yl]-1H-1,2,3-triazol-1-yl}benzamide] | 100% | 100% | 100% | 100% | 100% | 100% | 100% | 100% | 100% | 100% | 100%
